Assay results taken from US20230148214A1, “INDAZOLES AND AZAINDAZOLES AS LRRK2 INHIBITORS” (ESCAPE Bio, Inc., priority 2020, published 2023).

Key:
[1] = target: T1, LRRK2 WT (Homo sapiens, UniProt Q5S007); assay: LRRK2 Kinase Activity Assay (LanthaScreen TR-FRET), wild type; assay type: biochemical; conditions: recombinant wild type LRRK2, 25 μM ATP, 400 nM LRRKtide, 60 min; class symbols
T1 construct: purchased Life Technologies PR8604B
Procedure, shortened: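 Recombinant wild-type or G2019S LRRK2 incubated with fluorescein-labeled LRRKtide (ERM-based) peptide, ATP and serially diluted compound for 60 min at room temperature.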

[2] = target: T2, LRRK2 G2019S (Homo sapiens, UniProt Q5S007, G2019S); assay: LRRK2 Kinase Activity Assay (LanthaScreen TR-FRET), G2019S; assay type: biochemical; conditions: recombinant G2019S-LRRK2, 25 μM ATP, 400 nM LRRKtide, 60 min; class symbols
T2 construct: purchased Life Technologies PV4881
Method: LRRK2 kinase activity was measured using a LanthaScreen™ Kinase Activity Assay from ThermoFisher Scientific. Recombinant wild type or G2019S-LRRK2 protein (Life Technologies, PR8604B or PV4881, respectively), was incubated with a fluorescein-labeled peptide substrate called LRRKtide that is based upon ezrin/radixin/moesin (ERM) (Life Technologies, PV4901) in the presence of ATP and serially diluted compound. […] Compound-dependent inhibition of the TR-FRET signal was used to generate a concentration-response curve for IC50 determination.
After 60 min incubation at room temperature, the reaction was stopped by addition of 10 μL of 2×stop solution containing a final concentration of 2 nM anti-pERM antibody and 10 mM EDTA.

T2 sequence (Q5S007 whole entry G2019S): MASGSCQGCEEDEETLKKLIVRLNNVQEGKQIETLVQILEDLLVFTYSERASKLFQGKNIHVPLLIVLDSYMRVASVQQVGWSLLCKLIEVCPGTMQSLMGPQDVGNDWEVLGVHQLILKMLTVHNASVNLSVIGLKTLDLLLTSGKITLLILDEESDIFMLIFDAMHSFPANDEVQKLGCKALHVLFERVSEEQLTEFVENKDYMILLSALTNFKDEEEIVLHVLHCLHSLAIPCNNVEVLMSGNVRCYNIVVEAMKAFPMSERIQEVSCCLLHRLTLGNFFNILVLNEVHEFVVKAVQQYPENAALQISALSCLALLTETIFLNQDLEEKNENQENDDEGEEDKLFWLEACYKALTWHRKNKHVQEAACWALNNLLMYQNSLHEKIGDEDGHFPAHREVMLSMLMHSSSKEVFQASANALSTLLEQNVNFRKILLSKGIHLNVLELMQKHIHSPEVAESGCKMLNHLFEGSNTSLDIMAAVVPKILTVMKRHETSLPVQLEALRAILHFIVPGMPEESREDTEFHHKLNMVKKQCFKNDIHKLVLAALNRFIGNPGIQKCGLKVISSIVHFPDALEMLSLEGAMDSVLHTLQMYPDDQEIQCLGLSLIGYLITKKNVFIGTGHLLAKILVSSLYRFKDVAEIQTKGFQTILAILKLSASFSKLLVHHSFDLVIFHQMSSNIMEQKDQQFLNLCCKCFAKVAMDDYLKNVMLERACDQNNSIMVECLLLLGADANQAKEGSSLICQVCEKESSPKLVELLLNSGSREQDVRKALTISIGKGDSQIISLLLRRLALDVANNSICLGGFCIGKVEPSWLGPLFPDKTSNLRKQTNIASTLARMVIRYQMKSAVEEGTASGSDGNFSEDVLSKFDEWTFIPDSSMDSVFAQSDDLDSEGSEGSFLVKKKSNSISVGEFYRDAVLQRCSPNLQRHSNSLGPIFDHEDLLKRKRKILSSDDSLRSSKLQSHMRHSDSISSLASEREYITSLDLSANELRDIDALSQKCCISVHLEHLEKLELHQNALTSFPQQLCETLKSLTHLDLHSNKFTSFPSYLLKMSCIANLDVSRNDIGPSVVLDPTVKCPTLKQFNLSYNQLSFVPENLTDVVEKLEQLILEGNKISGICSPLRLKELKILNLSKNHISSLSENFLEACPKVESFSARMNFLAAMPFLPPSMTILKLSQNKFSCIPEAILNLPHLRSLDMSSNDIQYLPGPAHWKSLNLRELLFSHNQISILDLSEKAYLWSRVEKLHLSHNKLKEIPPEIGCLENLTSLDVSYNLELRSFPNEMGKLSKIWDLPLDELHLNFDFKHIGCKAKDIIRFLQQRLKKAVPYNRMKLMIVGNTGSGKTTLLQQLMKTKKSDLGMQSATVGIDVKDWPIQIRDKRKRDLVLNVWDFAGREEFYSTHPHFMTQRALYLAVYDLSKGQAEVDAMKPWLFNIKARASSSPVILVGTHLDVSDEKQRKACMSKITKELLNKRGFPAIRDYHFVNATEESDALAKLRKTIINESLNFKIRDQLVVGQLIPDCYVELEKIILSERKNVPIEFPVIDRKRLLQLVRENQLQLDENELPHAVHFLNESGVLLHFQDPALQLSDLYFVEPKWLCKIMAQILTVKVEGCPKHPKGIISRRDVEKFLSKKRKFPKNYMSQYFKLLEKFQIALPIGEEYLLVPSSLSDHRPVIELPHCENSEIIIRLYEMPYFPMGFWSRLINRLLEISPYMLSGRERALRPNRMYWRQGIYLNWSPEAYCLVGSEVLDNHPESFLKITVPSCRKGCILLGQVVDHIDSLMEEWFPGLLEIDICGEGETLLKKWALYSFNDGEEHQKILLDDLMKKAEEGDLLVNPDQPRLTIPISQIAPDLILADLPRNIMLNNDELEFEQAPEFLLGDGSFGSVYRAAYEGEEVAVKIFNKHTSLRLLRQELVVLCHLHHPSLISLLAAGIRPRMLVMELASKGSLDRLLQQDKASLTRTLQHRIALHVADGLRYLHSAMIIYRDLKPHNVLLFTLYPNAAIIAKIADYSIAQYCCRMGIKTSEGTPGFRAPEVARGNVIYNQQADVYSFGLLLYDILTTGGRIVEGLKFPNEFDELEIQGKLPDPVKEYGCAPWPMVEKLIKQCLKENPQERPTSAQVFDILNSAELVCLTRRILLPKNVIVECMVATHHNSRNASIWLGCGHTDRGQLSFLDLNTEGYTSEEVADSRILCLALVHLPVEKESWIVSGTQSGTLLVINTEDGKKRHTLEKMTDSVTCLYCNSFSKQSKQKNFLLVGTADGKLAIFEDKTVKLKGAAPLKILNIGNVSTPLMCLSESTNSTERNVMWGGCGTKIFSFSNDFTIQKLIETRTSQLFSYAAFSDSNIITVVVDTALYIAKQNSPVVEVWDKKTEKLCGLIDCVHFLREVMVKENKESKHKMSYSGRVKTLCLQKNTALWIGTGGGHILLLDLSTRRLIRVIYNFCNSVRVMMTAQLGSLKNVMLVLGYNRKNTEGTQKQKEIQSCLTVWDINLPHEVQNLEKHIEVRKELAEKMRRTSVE
T1 sequence (Q5S007 whole entry): as the sequence (Q5S007 whole entry G2019S) above, with S2019G counted along it

| IC50 [1] | IC50 [2] | Compound |
| --- | --- | --- |
| < 100 nM | < 100 nM | N#Cc1ccc2c(c1)CCC2Oc1ccc2[nH]nc(-c3cnco3)c2c1 (single isomer, unassigned) [Example 3, enantiomer 1, 1-((3-(Oxazol-5-yl)-1H-indazol-5-yl)oxy)-2,3-dihydro-1H-indene-5-carbonitrile] |
| 100 to 1000 nM | < 100 nM | N#Cc1ccc2c(c1)CC[C@@H]2Oc1ccc2[nH]nc(-c3cnn(C(F)F)c3)c2c1 (single isomer, unassigned) [Example 4, enantiomer 1, 1-((3-(1-(Difluoromethyl)-1H-pyrazol-4-yl)-1H-indazol-5-yl)oxy)-2,3-dihydro-1H-indene-5-carbonitrile] |
| < 100 nM | < 100 nM | N#Cc1ccc2c(c1)CC[C@@H]2Oc1ccc2[nH]nc(-c3cnoc3)c2c1 (single isomer, unassigned) [Example 5, enantiomer 1, 1-((3-(Isoxazol-4-yl)-1H-indazol-5-yl)oxy)-2,3-dihydro-1H-indene-5-carbonitrile] |
| < 100 nM | < 100 nM | N#Cc1ccc2c(c1)CCC[C@@H]2Nc1ccc2[nH]nc(-c3cnoc3)c2c1 (single isomer, unassigned) [Example 6, enantiomer 1, 5-((3-(Isoxazol-4-yl)-1H-indazol-5-yl)amino)-5,6,7,8-tetrahydronaphthalene-2-carbonitrile] |
| 100 to 1000 nM | < 100 nM | N#Cc1ccc2c(c1)CCC[C@@H]2Nc1ccc2[nH]nc(-c3cnoc3)c2c1 (single isomer, unassigned) [Example 6, enantiomer 2, 5-((3-(Isoxazol-4-yl)-1H-indazol-5-yl)amino)-5,6,7,8-tetrahydronaphthalene-2-carbonitrile] |
| 1000 to 10000 nM | 100 to 1000 nM | N#Cc1cnc2c(c1)CCC[C@@H]2Nc1ccc2[nH]nc(-c3cnoc3)c2c1 (single isomer, unassigned) [Example 7, enantiomer 1, 8-((3-(Isoxazol-4-yl)-1H-indazol-5-yl)amino)-5,6,7,8-tetrahydroquinoline-3-carbonitrile] |
| < 100 nM | < 100 nM | N#Cc1cnc2c(c1)CCC[C@@H]2Nc1ccc2[nH]nc(-c3cnoc3)c2c1 (single isomer, unassigned) [Example 7, enantiomer 2, 8-((3-(Isoxazol-4-yl)-1H-indazol-5-yl)amino)-5,6,7,8-tetrahydroquinoline-3-carbonitrile] |
| < 100 nM | < 100 nM | N#Cc1ccc2c(c1)CC[C@@H]2Nc1ccc2[nH]nc(-c3cnoc3)c2c1 (single isomer, unassigned) [Example 8, enantiomer 1, 1-((3-(Isoxazol-4-yl)-1H-indazol-5-yl)amino)-2,3-dihydro-1H-indene-5-carbonitrile] |
| < 100 nM | < 100 nM | N#Cc1ccc2c(c1)CC[C@@H]2Nc1ccc2[nH]nc(-c3cnco3)c2c1 (single isomer, unassigned) [Example 9, enantiomer 1, 1-((3-(Oxazol-5-yl)-1H-indazol-5-yl)amino)-2,3-dihydro-1H-indene-5-carbonitrile] |
| 100 to 1000 nM | < 100 nM | N#Cc1ccc2c(c1)CC[C@@H]2Nc1ccc2[nH]nc(-c3ccoc3)c2c1 (single isomer, unassigned) [Example 11, enantiomer 1, 1-((3-(Furan-3-yl)-1H-indazol-5-yl)amino)-2,3-dihydro-1H-indene-5-carbonitrile] |
| < 100 nM | < 100 nM | N#Cc1ccc2c(c1)CC[C@@H]2Nc1ccc2[nH]nc(-c3cnn(C(F)F)c3)c2c1 (single isomer, unassigned) [Example 12, enantiomer 1, 1-((3-(1-(Difluoromethyl)-1H-pyrazol-4-yl)-1H-indazol-5-yl)amino)-2,3-dihydro-1H-indene-5-carbonitrile] |
| < 100 nM | < 100 nM | Cc1cc(C#N)cc2c1[C@@H](Oc1ccc3[nH]nc(-c4cnco4)c3c1)CC2 (single isomer, unassigned) [Example 14, enantiomer 1, 7-Methyl-1-((3-(oxazol-5-yl)-1H-indazol-5-yl)oxy)-2,3-dihydro-1H-indene-5-carbonitrile] |
